Test results reported in patent publication US12226412B2, “Heteroaryl-ketone fused azadecalin glucocorticoid receptor modulators” (Corcept Therapeutics, Inc., priority 2012, dated 2025).
Where two headings read alike, the source gives them in different places.

Tests used:
human recombinant GR = target: T1, human recombinant GR (Homo sapiens, UniProt P04150); assay: Human glucocorticoid receptor (GR) fluorescence polarisation (FP) binding assay
T1 construct: purchased PanVera P2812
T1 sequence (P04150 1-777): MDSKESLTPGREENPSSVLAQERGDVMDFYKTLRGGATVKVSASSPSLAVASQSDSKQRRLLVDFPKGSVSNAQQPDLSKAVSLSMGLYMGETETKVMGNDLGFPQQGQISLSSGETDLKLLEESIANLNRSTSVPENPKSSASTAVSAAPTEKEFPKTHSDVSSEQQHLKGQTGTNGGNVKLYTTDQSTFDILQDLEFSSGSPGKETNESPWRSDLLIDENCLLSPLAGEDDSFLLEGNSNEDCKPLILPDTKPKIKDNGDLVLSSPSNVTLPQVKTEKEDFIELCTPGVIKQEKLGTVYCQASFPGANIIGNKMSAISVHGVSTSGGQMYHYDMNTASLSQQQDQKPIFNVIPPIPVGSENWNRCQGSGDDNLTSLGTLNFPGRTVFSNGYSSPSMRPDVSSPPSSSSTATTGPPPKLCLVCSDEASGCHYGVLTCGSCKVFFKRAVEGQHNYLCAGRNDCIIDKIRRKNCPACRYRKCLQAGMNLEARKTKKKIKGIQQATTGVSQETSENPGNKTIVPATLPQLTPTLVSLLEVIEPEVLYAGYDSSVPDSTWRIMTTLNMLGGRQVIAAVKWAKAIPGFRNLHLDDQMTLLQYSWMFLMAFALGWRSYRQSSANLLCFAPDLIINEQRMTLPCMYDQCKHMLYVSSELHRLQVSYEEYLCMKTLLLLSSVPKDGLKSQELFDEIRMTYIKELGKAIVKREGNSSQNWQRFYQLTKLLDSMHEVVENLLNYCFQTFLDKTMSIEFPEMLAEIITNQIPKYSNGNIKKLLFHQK
Method: Human Glucocorticoid Receptor (GR) Fluorescence Polarisation (FP) Binding Assay
The following is a description of a FP assay for measuring compound inhibition of labelled glucocorticoid binding to the human recombinant GR.
The binding affinity of test compounds was determined using a FP binding assay using human recombinant GR (PanVera P2812) and a fluorescent labelled glucocorticoid ligand (Fluorome GS Red) (PanVera P2894). The presence of inhibitors prevents the formation of a GS Red/GR complex resulting in a decrease in the measured polarisation value. The change in polarisation value in the presence of test compounds is used to calculate the binding affinity of the compound for GR.
This assay was performed in 384 well, black, round-bottom, polypropylene micro titre plates in a final volume of 20 μl. The assay contained 5 μl 1 nM GR (final concentration), 5 μl 0.5 nM Fluorome GS Red (final concentration) in the presence of 10 μl test compounds. Positive control wells (high polarisation) receive, 10 μl 2% (v: v) DMSO vehicle (1% (v/v) final concentration)+5 μl 1 nM GR and 5 μl 0.5 nM Fluorome GS Red. […] Assay blank background wells (used for normalisation) receive 15 μl 1× GS screening buffer+5 μl GR.
Compounds were prepared as solubilised solids at 10 mM in DMSO. On the day of assay, an 8 point half-log serial dilution (55 μl DMSO+25 μl compound solution) was prepared. A 1:50 dilution (1 μl compound solution+49 μl 1× GR screening buffer) was prepared for each compound. The compounds were prepared at 2× final assay concentration.
The plates were mixed and incubated for 4 hour at room temperature.
10× GR screening buffer (100 mM potassium phosphate pH 7.4, 200 mM Na2MoO4, 1 mM EDTA, 20% (v/v) DMSO). To prepare 1× GR screening buffer, combine 1 ml 10× GR screening buffer (PanVera P2814)+1 ml stabilising peptide (PanVera P2815)+7.95 ml 4° C. MQ water. Add 50 μl 1M DTT, vortex and place on ice until use.

[1] = system: induction of TAT by dexamethasone in HepG2 cells; assay: HepG2 tyrosine aminotransferase (TAT) assay; assay type: cell-based, human
Method: Example 21. HepG2 Tyrosine Aminotransferase (TAT) Assay
Glucocorticoid mediated activation of TAT occurs by transactivation of glucocorticoid response elements in the TAT promoter by glucocorticoid receptor agonist complex.
TAT activity was measured as outlined in the literature by A. Ali et al., J. Med. Chem., 2004, 47, 2441-2452.
HepG2 cells were cultured using MEME media supplemented with 10% (v/v) foetal bovine serum; 2 mM L-glutamine and 1% (v/v) NEAA at 37° C., 5%/95% (v/v) CO2/air. The HepG2 cells were counted and adjusted to yield a density of 0.125×10^6 cells/ml in RPMI 1640 without phenol red, 10% (v/v) charcoal stripped FBS, 2 mM L-glutamine and seeded at 25,000 cells/well in 200 μl into 96 well, sterile, tissue culture micro titre plates, and incubated at 37° C., 5% CO2 for 24 hours
Growth media was removed and replaced with assay media {RPMI 1640 without phenol red, 2 mM L-glutamine+10 μM forskolin}. […] Compounds were serially half log diluted in 100% (v/v) dimethylsupfoxide from a 10 mM stock.
HepG2 cells were then lysed with 30 μl of cell lysis buffer containing a protease inhibitor cocktail for 15 minutes at 4° C. 155 μl of substrate mixture was then added containing 5.4 mM Tyrosine sodium salt, 10.8 mM alpha ketoglutarate and 0.06 mM pyridoxal 5′ phosphate in 0.1M potassium phosphate buffer (pH 7.4). After 2 hours incubation at 37° C. the reaction was terminated by the addition of 15 μl of 10M aqueous potassium hydroxide solution, and the plates incubated for a further 30 minutes at 37° C. The TAT activity product was measured by absorbance at […].
[compound] and fitting the data to a 4 parameter logistic equation.

[2] = human recombinant GR, fluorescence polarisation binding assay, read-out: GR binding
[3] = HepG2 cells, challenge of 100 nM dexamethasone, Ki from IC50 by Cheng and Prusoff equation

Compound | Ki (human recombinant GR; [2]) [µM] | Ki [1, 3] [µM] | Ki (human recombinant GR) [µM] | Ki [1] [µM]
Cc1ccc(S(=O)(=O)N2CCC3=Cc4c(cnn4-c4ccc(F)cc4)C[C@]3(C(=O)c3ccccn3)C2)cc1 [Example 2O, (R)-(1-(4-fluorophenyl)-6-tosyl-4,4a,5,6,7,8-hexahydro-1H-pyrazolo [3,4-g]isoquinolin-4a-yl)(pyridin-2-yl)methanone] | – | < 0.02 | < 0.0005 | –
O=C(c1ccccn1)[C@]12Cc3cnn(-c4ccc(F)cc4)c3C=C1CCN(S(=O)(=O)c1ccc(F)c(C(F)(F)F)c1)C2 [Example 2P, (R)-(6-((4-fluoro-3-(trifluoromethyl)phenyl)sulfonyl)-1-(4-fluorophenyl)-4,4a,5,6,7,8-hexahydro-1H-pyrazolo[3,4-g]isoquinolin-4a-yl)(pyridin-2-yl)methanone] | – | – | 0.0005 to 0.001 | < 0.02
O=C(c1ccccn1)[C@]12Cc3cnn(-c4ccc(F)cc4)c3C=C1CCN(S(=O)(=O)C1CCOCC1)C2 [Example 2S, (R)-(1-(4-fluorophenyl)-6-((tetrahydro-2H-pyran-4-yl)sulfonyl)-4,4a,5,6,7,8-hexahydro-1H-pyrazolo[3,4-g]isoquinolin-4a-yl)(pyridin-2-yl)methanone] | > 0.001 | ≥ 0.1 | – | –
O=C(c1ccccn1)[C@]12Cc3cnn(-c4ccc(F)cc4)c3C=C1CCN(S(=O)(=O)C1CCCCC1)C2 [Example 2T, (R)-(6-(cyclohexylsulfonyl)-1-(4-fluorophenyl)-4,4a,5,6,7,8-hexahydro-1H-pyrazolo [3,4-g]isoquinolin-4a-yl)(pyridin-2-yl)methanone] | > 0.001 | ≥ 0.1 | – | –
CCn1nccc1S(=O)(=O)N1CCC2=Cc3c(cnn3-c3ccc(F)cc3)C[C@]2(C(=O)c2cc(C(F)(F)F)ccn2)C1 [Example 2U, (R)-(6-((1-ethyl-1H-pyrazol-5-yl)sulfonyl)-1-(4-fluorophenyl)-4,4a,5,6,7,8-hexahydro-1H-pyrazolo[3,4-g]isoquinolin-4a-yl)(4-(trifluoromethyl)pyridin-2-yl)methanone] | > 0.001 | < 0.02 | – | –
Cc1n[nH]c(C)c1S(=O)(=O)N1CCC2=Cc3c(cnn3-c3ccc(F)cc3)C[C@]2(C(=O)c2cc(C(F)(F)F)ccn2)C1 [Example 2V, (R)-(6-((3,5-dimethyl-1H-pyrazol-4-yl)sulfonyl)-1-(4-fluorophenyl)-4,4a,5,6,7,8-hexahydro-1H-pyrazolo[3,4-g]isoquinolin-4a-yl)(4-(trifluoromethyl)pyridin-2-yl)methanone] | > 0.001 | 0.02 to 0.1 | – | –
O=C(c1cc(C(F)(F)F)ccn1)[C@]12Cc3cnn(-c4ccc(F)cc4)c3C=C1CCN(S(=O)(=O)c1c[nH]cn1)C2 [Example 2W, (R)-(6-((1H-imidazol-4-yl)sulfonyl)-1-(4-fluorophenyl)-4,4a,5,6,7,8-hexahydro-1H-pyrazolo[3,4-g]isoquinolin-4a-yl)(4-(trifluoromethyl)pyridin-2-yl)methanone] | > 0.001 | 0.02 to 0.1 | – | –

The next lines start with results.

Ki (human recombinant GR; [2]) [µM] | Compound | Ki [1, 3] [µM] | Ki (human recombinant GR) [µM] | Ki [1] [µM]
< 0.0005 | O=C(c1ccccn1)[C@]12Cc3cnn(-c4ccc(F)cc4)c3C=C1CCN(S(=O)(=O)c1ccccc1)C2 [Example 2K, (R)-(1-(4-fluorophenyl)-6-(phenylsulfonyl)-4,4a,5,6,7,8-hexahydro-1H-pyrazolo [3,4-g]isoquinolin-4a-yl)(pyridin-2-yl)methanone] | < 0.02 | – | –
< 0.0005 | O=C(c1ccccn1)[C@]12Cc3cnn(-c4ccc(F)cc4)c3C=C1CCN(S(=O)(=O)c1ccccc1F)C2 [Example 2L, (R)-(1-(4-fluorophenyl)-6-((2-fluorophenyl)sulfonyl)-4,4a,5,6,7,8-hexahydro-1H-pyrazolo[3,4-g]isoquinolin-4a-yl)(pyridin-2-yl)methanone] | < 0.02 | – | –
< 0.0005 | Cn1cc(S(=O)(=O)N2CCC3=Cc4c(cnn4-c4ccc(F)cc4)C[C@]3(C(=O)c3ccccn3)C2)cn1 [Example 2M, (R)-(1-(4-fluorophenyl)-6-((1-methyl-1H-pyrazol-4-yl)sulfonyl)-4,4a,5,6,7,8-hexahydro-1H-pyrazolo[3,4-g]isoquinolin-4a-yl)(pyridin-2-yl)methanone] | 0.02 to 0.1 | – | –
< 0.0005 | O=C(c1ccccn1)[C@]12Cc3cnn(-c4ccc(F)cc4)c3C=C1CCN(S(=O)(=O)c1ccc(C(F)(F)F)nc1)C2 [Example 2N, (R)-(1-(4-fluorophenyl)-6-((6-(trifluoromethyl)pyridin-3-yl)sulfonyl)-4,4a,5,6,7,8-hexahydro-1H-pyrazolo[3,4-g]isoquinolin-4a-yl) (pyridin-2-yl)methanone] | < 0.02 | – | –
< 0.0005 | N#Cc1ccc(S(=O)(=O)N2CCC3=Cc4c(cnn4-c4ccc(F)cc4)C[C@]3(C(=O)c3ccccn3)C2)cc1 [Example 2Q, (R)-4-((1-(4-fluorophenyl)-4a-picolinoyl-4a,5,7,8-tetrahydro-1H-pyrazolo[3,4-g]isoquinolin-6 (4H)-yl)sulfonyl)benzonitrile] | 0.02 to 0.1 | – | –
< 0.0005 | COc1ccc(S(=O)(=O)N2CCC3=Cc4c(cnn4-c4ccc(F)cc4)C[C@]3(C(=O)c3ccccn3)C2)cn1 [Example 2R, (R)-(1-(4-fluorophenyl)-6-((6-methoxypyridin-3-yl)sulfonyl)-4,4a,5,6,7,8-hexahydro-1H-pyrazolo[3,4-g]isoquinolin-4a-yl)(pyridin-2-yl)methanone] | < 0.02 | – | –
< 0.0005 | O=C(c1ccccn1)[C@]12Cc3cnn(-c4ccc(F)cc4)c3C=C1CCN(S(=O)(=O)c1ccc(N3CCOCC3)nc1)C2 [Example 3, (R)-(1-(4-fluorophenyl)-6-((6-morpholinopyridin-3-yl)sulfonyl)-4,4a,5,6,7,8-hexahydro-1H-pyrazolo[3,4-g]isoquinolin-4a-yl)(pyridin-2-yl)methanone] | 0.02 to 0.1 | – | –
< 0.0005 | O=C(c1nccs1)[C@]12Cc3cnn(-c4ccc(F)cc4)c3C=C1CCN(S(=O)(=O)c1ccc(N3CCCC3)nc1)C2 [Example 4, (R)-(1-(4-fluorophenyl)-6-((6-(pyrrolidin-1-yl)pyridin-3-yl)sulfonyl)-4,4a,5,6,7,8-hexahydro-1H-pyrazolo[3,4-g]isoquinolin-4a-yl)(thiazol-2-yl)methanone] | ≥ 0.1 | – | –
